The source of these data is patent US11840686B2, “Modulation of prekallikrein (PKK) expression” (Ionis Pharmaceuticals, Inc., priority 2013, dated 2023).

This series relates to human PKK mRNA. The series can be described thus: Antisense inhibition of human PKK mRNA in HepaRG cells, 5,000 nM (Example 2). It counts as cell-based. The method, boiled down: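 HepaRG cells, 20,000 per well, were electroporated with 5,000 nM MOE gapmer (phosphorothioate, 5-methylcytosine) and incubated about 24 hours. PKK mRNA was quantified by qRT-PCR with primer probe set RTS3454, normalized to RIBOGREEN total RNA, and expressed as percent inhibition versus untreated controls.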

[1] abbreviates: HepaRG cells, 5,000 nM antisense oligonucleotide, 5-10-5 gapmers, Table 16.
The mark [2] stands for this setting: Table 7, HepaRG cells, electroporation with 5,000 nM antisense oligonucleotide, approx. 24 hours, PKK mRNA by RT-PCR (RTS3454), relative to untreated control cells.
The mark [3] stands for this setting: HepaRG cells, electroporation with 5,000 nM antisense oligonucleotide, approximately 24 hours, PKK mRNA by RT-PCR (RTS3454), relative to untreated control cells, Table 6 experiment.
[4] abbreviates: HepaRG cells, electroporation, 5,000 nM antisense oligonucleotide, approx. 24 hours, primer probe set RTS3454, relative to untreated control cells, Table 11.
The mark [5] stands for this setting: HepaRG cells, electroporation with 5,000 nM antisense oligonucleotide, approximately 24 hours, PKK mRNA by RT-PCR (RTS3454), relative to untreated control cells, Table 5 experiment.
[6] abbreviates: HepaRG cells, electroporation, 5,000 nM antisense oligonucleotide, approx. 24 hours, primer probe set RTS3454, relative to untreated control cells, Table 12.
Setting [7] is: Table 13, human PKK mRNA in HepaRG cells, 5-10-5 gapmers.
[8] abbreviates: HepaRG cells, 5,000 nM antisense oligonucleotide, 5-10-5 gapmers, Table 17.
[9] abbreviates: human PKK mRNA, HepaRG cells, 5-10-5 motif oligonucleotides targeting SEQ ID NO: 1 and 10.

Strand notation (5' to 3'): a small letter for the sugar, then the base; units joined by * are phosphorothioate-linked, units joined directly phosphodiester-linked; [ ] holds rarer units or linkages, { } end groups; capitals alone tell only the bases. e = 2'-O-(2-methoxyethyl) (MOE); [5mC] = 5-methylcytosine; d = 2'-deoxy (DNA)

As for “547704 (antisense eA*e[5mC]*eA*eT*e[5mC]*dT*dT*dG*dT*d[5mC]*dA*dT*dT*dA*dA*e[5mC]*eA*eT*e[5mC]*e[5mC]) [compound 547704]”, the “% inhibition” value under setting [1] is on record as 61%.
In the case of “546243 (eA*eG*eA*eA*eT*dG*dG*d[5mC]*dA*dG*dG*dG*dT*dT*d[5mC]*eA*eG*eG*eT*eA; antisense) [compound 546243]”, under setting [2], the “% inhibition” value was 16%.
Turning to “546175 (antisense e[5mC]*eT*eG*e[5mC]*eA*d[5mC]*d[5mC]*dT*dG*dT*dT*d[5mC]*dG*dA*dT*eG*eT*eA*e[5mC]*eT) [compound 546175]”, the “% inhibition” value under setting [3] was determined as 78%.
Take “547527 (antisense e[5mC]*eT*e[5mC]*eA*eG*dT*dT*dG*d[5mC]*dG*dA*d[5mC]*d[5mC]*dT*d[5mC]*eG*e[5mC]*eA*eT*eT) [compound 547527]”: the “% inhibition” value under setting [4] is given as 58%.
Turning to “547282 (antisense eT*eT*eG*e[5mC]*eT*dT*dG*d[5mC]*dT*dT*dG*dA*dA*dT*dA*eA*eA*eA*eT*e[5mC]) [compound 547282]”, the “% inhibition” value under setting [5] was 53%.
Consider “546275 (eG*eA*eA*e[5mC]*e[5mC]*dA*dT*d[5mC]*d[5mC]*dA*dT*dA*dG*dA*dT*eA*eA*eT*e[5mC]*eT; antisense) [compound 546275]”, for which, for the setting “Table 8, HepaRG cells, electroporation with 5,000 nM antisense oligonucleotide, approx. 24 hours, PKK mRNA by RT-PCR (RTS3454), relative to untreated control cells”, the “% inhibition” value worked out at 87%.
With “546493 (e[5mC]*eA*eT*eA*e[5mC]*dT*d[5mC]*dG*d[5mC]*d[5mC]*dT*dT*dT*dG*dT*eG*eA*e[5mC]*eT*e[5mC]; antisense) [compound 546493]”, under setting [6], the “% inhibition” value was found to be 35%.
“546241 (e[5mC]*eA*eG*eG*eT*dA*dA*dA*dG*dT*dT*d[5mC]*dT*dT*dT*eT*eG*e[5mC]*eA*eG; antisense) [compound 546241]”: the “% inhibition” value under setting [2] is 69%.
In the case of “547371 (eA*eT*eG*eG*eT*d[5mC]*d[5mC]*dG*dA*d[5mC]*dA*d[5mC]*dA*d[5mC]*dA*eA*eA*eA*eG*e[5mC]; antisense) [compound 547371]”, under setting [2], the “% inhibition” value was determined as 66%.
For “547462 (antisense eG*eT*eG*eT*eA*dA*dT*dT*d[5mC]*dA*dA*dA*dG*dG*dA*eG*e[5mC]*e[5mC]*eT*eG) [compound 547462]”, the “% inhibition” value reads like this: (Table 9 experiment, HepaRG cells, 20,000 cells per well, electroporation with 5,000 nM antisense oligonucleotide, approx. 24 hours, PKK mRNA by RT-PCR (RTS3454), relative to untreated control cells) 59%; (Table 10 experiment, HepaRG cells, 20,000 cells per well, electroporation with 5,000 nM antisense oligonucleotide, approx. 24 hours, PKK mRNA by RT-PCR (RTS3454), relative to untreated control cells) 54%.
For the substance “546389 (e[5mC]*eG*eT*eG*e[5mC]*dT*dG*dA*dA*dA*dG*d[5mC]*dG*dG*dG*e[5mC]*eT*eT*e[5mC]*eA; antisense) [compound 546389]”, the “% inhibition” value under setting [4] was 71%.
Take “547685 (antisense eA*eT*eA*eA*e[5mC]*dT*dA*dT*dA*dT*d[5mC]*dA*d[5mC]*dT*dG*eT*e[5mC]*e[5mC]*eT*eA) [compound 547685]”: the “% inhibition” value under setting [1] is given as 35%.
As to “548716 (DNA eT*eA*eT*d[5mC]*dA*d[5mC]*dT*dG*dT*dA*d[5mC]*dT*dA*eG*eT*eT; antisense) [compound 548716]”, the “% inhibition” value (HepaRG cells, 5,000 nM antisense oligonucleotide, human PKK mRNA, Table 18) was 10%.
As for “547678 (antisense eT*eA*e[5mC]*e[5mC]*eT*dA*dT*dA*dT*d[5mC]*dA*d[5mC]*dT*dG*dT*eA*eA*e[5mC]*eT*eA) [compound 547678]”, the “% inhibition” value under setting [1] came to 21%.
“546498 (e[5mC]*e[5mC]*eA*eT*eG*d[5mC]*dA*dT*dA*d[5mC]*dT*d[5mC]*dG*d[5mC]*d[5mC]*eT*eT*eT*eG*eT; antisense) [compound 546498]”: the “% inhibition” value under setting [6] came to 65%.
Take “547562 (e[5mC]*eT*eT*eT*e[5mC]*dT*dT*dG*dA*dG*dA*d[5mC]*dA*dA*dT*e[5mC]*e[5mC]*e[5mC]*eT*eT; antisense) [compound 547562]”: the “% inhibition” value under setting [7] was 59%.
As for “547022 (eA*eT*eT*eG*eG*dT*dG*dG*d[5mC]*dG*dG*dG*dA*dT*d[5mC]*eG*eG*eT*eG*eG; antisense) [compound 547022]”, the “% inhibition” value under setting [8] came to 69%.
With “546372 (antisense eG*eA*eA*eT*eT*dT*dG*dA*d[5mC]*dT*dT*dG*dA*dA*d[5mC]*eT*e[5mC]*eA*eG*eG) [compound 546372]”, under setting [4], the “% inhibition” value is 49%.
“547695 (antisense eA*e[5mC]*eT*eG*eT*d[5mC]*d[5mC]*dT*dA*dT*dA*dA*d[5mC]*dT*dA*eT*eT*eA*e[5mC]*eA) [compound 547695]”: the “% inhibition” value under setting [1] is 31%.
With “547548 (antisense eT*eG*e[5mC]*eA*eT*dA*d[5mC]*dT*d[5mC]*dG*d[5mC]*d[5mC]*dT*dT*dT*eG*eT*eG*eA*eT) [compound 547548]”, the “% inhibition” value under setting [6] was found to be 61%.
As for “546840 (e[5mC]*eT*eG*eT*e[5mC]*d[5mC]*dT*dA*dT*dA*dA*d[5mC]*dT*d[5mC]*dT*eA*eA*e[5mC]*eA*eG; antisense) [compound 546840]”, the “% inhibition” value under setting [7] turned out to be 53%.
“547392 (eA*eA*eG*eG*e[5mC]*dT*dA*dT*dA*dT*d[5mC]*d[5mC]*dA*dG*dA*eT*eA*eT*eG*eG; antisense) [compound 547392]”: the “% inhibition” value under setting [2] is reported as 81%.
As for “546379 (antisense e[5mC]*eT*e[5mC]*e[5mC]*eA*dT*dG*d[5mC]*dT*dT*dT*dG*d[5mC]*dA*dG*eA*eT*eG*eA*eG) [compound 546379]”, the “% inhibition” value under setting [4] is recorded as 69%.
“546990 (eA*eG*eA*eA*e[5mC]*dA*dG*dG*dA*dG*dA*d[5mC]*dA*dA*dT*e[5mC]*e[5mC]*eA*e[5mC]*eT; antisense) [compound 546990]”: the “% inhibition” value under setting [1] is 49%.
For the substance “546234 (e[5mC]*e[5mC]*eA*eG*eA*dT*dA*dT*dG*dG*dT*dG*dT*dT*dT*eT*e[5mC]*eT*eT*eG; antisense) [compound 546234]”, the “% inhibition” value under setting [2] turned out to be 69%.
As for “546910 (eT*eA*eA*e[5mC]*eA*dA*dT*dA*dT*d[5mC]*dA*d[5mC]*dT*dG*dT*eA*e[5mC]*e[5mC]*eT*eT; antisense) [compound 546910]”, the “% inhibition” value under setting [9] was 82%.
For “546170 (antisense eG*e[5mC]*eA*eA*e[5mC]*d[5mC]*dA*dA*dA*d[5mC]*d[5mC]*dT*dT*dT*dT*e[5mC]*eT*e[5mC]*e[5mC]*eA) [compound 546170]”, the “% inhibition” value under setting [5] amounted to 54%.
The same measure, in the same setting: next, “547287 (antisense eG*eT*e[5mC]*eA*eG*dA*d[5mC]*dA*dT*d[5mC]*d[5mC]*dA*d[5mC]*dA*dG*eG*eA*eA*eA*e[5mC]) [compound 547287]”: 69%.
Regarding “548739 (DNA eG*eT*eA*e[5mC]*dT*dA*dG*dT*dT*dT*d[5mC]*d[5mC]*dT*eA*eT*eA*eA; antisense) [compound 548739]”, the “% inhibition” value (human PKK mRNA, HepaRG cells, 5,000 nM antisense oligonucleotide, Table 18) worked out at 0%.
On to “547302 (antisense e[5mC]*e[5mC]*eA*eT*eG*dT*d[5mC]*dA*dT*dT*dG*dA*dT*dT*dG*eA*eA*e[5mC]*eT*eT) [compound 547302]”, for which the “% inhibition” value under setting [5] amounted to 58%.
On to “547331 (antisense eA*eG*e[5mC]*eA*e[5mC]*dT*dT*dA*dT*dT*dT*dG*dA*dT*dG*eA*e[5mC]*e[5mC]*eA*e[5mC]) [compound 547331]”, for which, under setting [3], the “% inhibition” value was determined as 47%.
Regarding “547352 (antisense e[5mC]*e[5mC]*eG*eG*eT*dA*d[5mC]*dT*d[5mC]*dT*dG*d[5mC]*d[5mC]*dT*dT*eG*eT*eG*eA*eA) [compound 547352]”, the “% inhibition” value under setting [3] was 94%.
On to “546890 (eT*eG*eT*e[5mC]*e[5mC]*dT*dA*dT*dG*dT*d[5mC]*dA*d[5mC]*dT*dG*eT*eA*e[5mC]*e[5mC]*eT; antisense) [compound 546890]”, for which the “% inhibition” value under setting [9] is recorded as 78%.
With “547566 (eA*eA*eG*eA*eG*dT*dT*dG*dG*dG*dA*dT*dG*d[5mC]*dG*eA*e[5mC]*eT*e[5mC]*eT; antisense) [compound 547566]”, the “% inhibition” value under setting [7] came out at 76%.
For the substance “546366 (antisense eT*eG*e[5mC]*e[5mC]*eT*dA*dG*dA*d[5mC]*dT*d[5mC]*dT*dG*dG*dA*e[5mC]*eT*eG*e[5mC]*eT) [compound 546366]”, under setting [4], the “% inhibition” value amounted to 79%.
As to “546880 (eG*eT*eT*eT*e[5mC]*d[5mC]*dT*dA*dT*dA*dA*d[5mC]*dA*dG*dT*eA*eT*e[5mC]*eA*e[5mC]; antisense) [compound 546880]”, the “% inhibition” value (human PKK mRNA in HepaRG cells, 5-10-5 gapmers, Table 14) is on record as 41%.
With “546606 (e[5mC]*eT*e[5mC]*eA*e[5mC]*d[5mC]*dA*dG*dA*dG*dT*dT*dG*dT*d[5mC]*e[5mC]*e[5mC]*e[5mC]*eA*eG; antisense) [compound 546606]”, the “% inhibition” value under setting [8] was 0%.
As for “547323 (antisense eT*eT*eG*e[5mC]*eT*dT*d[5mC]*dA*dA*dG*dG*dA*dA*dT*dG*eT*e[5mC]*e[5mC]*eA*eG) [compound 547323]”, the “% inhibition” value under setting [3] is on record as 56%.
Take “547393 (eT*eG*e[5mC]*eA*eG*dG*dT*dT*dA*dA*dA*dA*dG*dG*d[5mC]*eT*eA*eT*eA*eT; antisense) [compound 547393]”: the “% inhibition” value under setting [2] is reported as 73%.

Usually % inhibition stands for the change of the read-out against control, counted positive when it falls. Low readings indicate a response near the control, high ones a response far below the control.
